Data as given in US6509343B1 (priority 1996, dated 2003).

What was measured:
Assay type in all cases: in vivo
[1] = system: Pyrenophora teres; assay: Pyrenophora teres test (barley)/curative; details: 6.25 g/ha, curative, 7 days after inoculation
Method: Solvent: 25 parts by weight of N,N-dimethylacetamide
Emulsifier: 0.6 part by weight of alkylaryl polyglycol ether
To produce a suitable preparation of active compound, 1 part by weight of active compound or active compound combination is mixed with the stated amounts of solvent and emulsifier, and the concentrate is diluted with water to the desired concentration.
To test for curative activity, young plants are sprayed with a conidia suspension of Pyrenophora teres. The plants remain in an incubation cabin at 20° C. and 100% relative atmospheric humidity for 48 hours. The plants are subsequently sprayed with the preparation of active compound at the stated application rate.
The plants are placed in a greenhouse at a temperature of about 20° C. and a relative atmospheric humidity of about 80%.
Evaluation is carried out 7 days after the inoculation. 0% means an efficacy which corresponds to that of the control, whereas an efficacy of 100% means that no infection is observed.

[2] = system: Fusarium nivale; assay: Fusarium nivale test (triticale)/seed treatment; details: about 3 weeks after sowing
Method: The active compounds are applied as a dry seed dressing. This is prepared by extending the respective active compound with ground mineral to give a finely pulverulent mixture which ensures uniform distribution on the seed surface.
To dress the seed, the infected seed together with the seed dressing is shaken for 3 minutes in a sealed glass flask.
2×100 corns of triticale are sown at a depth of 1 cm in standard soil and cultivated in a greenhouse at a temperature of about 10° C. and a relative atmospheric humidity of about 95% in seed trays which receive a light regimen of 15 hours per day.
About 3 weeks after sowing, the plants are evaluated for symptoms of snow mould. 0% means an efficacy which corresponds to that of the untreated control, while an efficacy of 100% means that no disease is observed.

[3] = system: Phytophthora infestans; assay: whole plant or invertebrate
[4] = Phytophthora infestans, in Solanum lycopersicum, 72 h, read-out: % efficacy

Structure (SMILES): CC(C)(C)C(O)C(Oc1ccc(Cl)cc1)n1cncn1 (stereo not shown) [(F), triadimenol]
- Efficacy in % [1]: 0%

Structure (SMILES): N#Cc1c[nH]cc1-c1cccc(Cl)c1Cl [(Fenpiclonil) z, fenpiclonil]
- Efficacy in % ([2]; 75 mg/kg of seed): 67%

Structure (SMILES): CON=C(C1=NOCCO1)c1ccccc1Oc1ncnc(Oc2ccccc2Cl)c1F [(I)]
- Efficacy in % [1]: 0%

Structure (SMILES): O=C(Nc1ccccc1)N(Cc1ccc(Cl)cc1)C1CCCC1 [(Pencycuron) P, pencycuron]
- Efficacy in % ([2]; 25 mg/kg of seed): 29%

Structure (SMILES): CCC1(C(=O)NC(C)c2ccc(Cl)cc2)C(C)C1(Cl)Cl [(ω), N-(R)-[1-(4-chloro-phenyl)-ethyl]-2,2-dichloro-1ethyl-3t-methyl-1r-cyclopropane-carboxamide]
- Emax at 5 g/ha [3, 4]: 3%

Structure (SMILES): CCNC(=O)NC(=O)/C(C#N)=N/OC [Cymoxanil (M), cymoxanil]
- % efficacy ([3]; in vivo): 12%

Structure (SMILES): COc1ccc(/C(=C\C(=O)N2CCOCC2)c2ccc(Cl)cc2)cc1OC [Dimetomorph (L), dimetomorph]
- Emax at 1 g/ha [3, 4]: 0%
